From ChEMBL document CHEMBL4406923, “New Potent DOT1L Inhibitors for in Vivo Evaluation in Mouse” (ACS Med Chem Lett, 2019)
Calls of active or inactive are those of the source. No cut-off for these calls is given here.

How the values were obtained:
[1] = biological target: T1, N-lysine methyltransferase KMT5A (Homo sapiens) (UniProt Q9NQR1); assay: Inhibition of SETD8 (unknown origin) at <5 uM using H4 (11 to 33 residues) as substrate in presence of co-factor SAM by LC-MS analysis
T1 sequence (whole entry): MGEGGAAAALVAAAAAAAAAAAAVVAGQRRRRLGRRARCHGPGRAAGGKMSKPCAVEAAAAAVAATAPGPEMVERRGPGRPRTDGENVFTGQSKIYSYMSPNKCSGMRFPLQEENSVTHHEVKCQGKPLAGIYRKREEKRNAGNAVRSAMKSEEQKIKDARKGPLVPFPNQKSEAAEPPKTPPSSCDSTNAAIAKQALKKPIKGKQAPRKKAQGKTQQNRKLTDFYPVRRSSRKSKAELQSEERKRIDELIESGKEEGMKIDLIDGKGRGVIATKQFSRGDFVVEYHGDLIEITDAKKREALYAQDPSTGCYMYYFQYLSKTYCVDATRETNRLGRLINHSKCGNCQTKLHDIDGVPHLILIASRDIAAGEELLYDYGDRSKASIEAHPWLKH

[2] = biological target: Histone-lysine N-methyltransferase SUV39H2 (Homo sapiens) (UniProt Q9H5I1); assay: Inhibition of Suv39H2 (unknown origin) at <5 uM using histone H3 peptide (1 to 21) as substrate in presence of co-factor SAM by LC-MS analysis
Sequence of Histone-lysine N-methyltransferase SUV39H2 (Homo sapiens) (Q9H5I1 whole entry): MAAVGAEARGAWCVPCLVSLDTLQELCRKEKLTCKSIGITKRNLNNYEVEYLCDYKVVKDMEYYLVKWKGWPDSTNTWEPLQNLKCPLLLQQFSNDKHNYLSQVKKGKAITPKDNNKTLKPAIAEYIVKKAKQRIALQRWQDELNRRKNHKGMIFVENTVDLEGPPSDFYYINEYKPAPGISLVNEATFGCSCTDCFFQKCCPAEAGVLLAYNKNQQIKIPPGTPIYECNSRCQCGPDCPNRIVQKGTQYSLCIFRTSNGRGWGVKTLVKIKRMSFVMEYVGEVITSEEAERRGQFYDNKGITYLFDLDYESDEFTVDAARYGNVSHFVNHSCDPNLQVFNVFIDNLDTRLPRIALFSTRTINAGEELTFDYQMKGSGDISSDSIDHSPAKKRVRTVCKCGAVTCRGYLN

MV4-11 = assay: Antitumor activity against human MV4-11 cells xenografted in C57BL/6 mouse assessed as reduction in tumor growth at <6 fold 300 mg/kg, po relative to control; format: functional
[3] = biological target: T2, Histone-lysine N-methyltransferase NSD3 (Homo sapiens) (UniProt Q9BZ95); assay: Inhibition of NSD3 (unknown origin) at <5 uM using histone H3 peptide (1 to 45) as substrate in presence of co-factor SAM by LC-MS analysis
T2 sequence (whole entry): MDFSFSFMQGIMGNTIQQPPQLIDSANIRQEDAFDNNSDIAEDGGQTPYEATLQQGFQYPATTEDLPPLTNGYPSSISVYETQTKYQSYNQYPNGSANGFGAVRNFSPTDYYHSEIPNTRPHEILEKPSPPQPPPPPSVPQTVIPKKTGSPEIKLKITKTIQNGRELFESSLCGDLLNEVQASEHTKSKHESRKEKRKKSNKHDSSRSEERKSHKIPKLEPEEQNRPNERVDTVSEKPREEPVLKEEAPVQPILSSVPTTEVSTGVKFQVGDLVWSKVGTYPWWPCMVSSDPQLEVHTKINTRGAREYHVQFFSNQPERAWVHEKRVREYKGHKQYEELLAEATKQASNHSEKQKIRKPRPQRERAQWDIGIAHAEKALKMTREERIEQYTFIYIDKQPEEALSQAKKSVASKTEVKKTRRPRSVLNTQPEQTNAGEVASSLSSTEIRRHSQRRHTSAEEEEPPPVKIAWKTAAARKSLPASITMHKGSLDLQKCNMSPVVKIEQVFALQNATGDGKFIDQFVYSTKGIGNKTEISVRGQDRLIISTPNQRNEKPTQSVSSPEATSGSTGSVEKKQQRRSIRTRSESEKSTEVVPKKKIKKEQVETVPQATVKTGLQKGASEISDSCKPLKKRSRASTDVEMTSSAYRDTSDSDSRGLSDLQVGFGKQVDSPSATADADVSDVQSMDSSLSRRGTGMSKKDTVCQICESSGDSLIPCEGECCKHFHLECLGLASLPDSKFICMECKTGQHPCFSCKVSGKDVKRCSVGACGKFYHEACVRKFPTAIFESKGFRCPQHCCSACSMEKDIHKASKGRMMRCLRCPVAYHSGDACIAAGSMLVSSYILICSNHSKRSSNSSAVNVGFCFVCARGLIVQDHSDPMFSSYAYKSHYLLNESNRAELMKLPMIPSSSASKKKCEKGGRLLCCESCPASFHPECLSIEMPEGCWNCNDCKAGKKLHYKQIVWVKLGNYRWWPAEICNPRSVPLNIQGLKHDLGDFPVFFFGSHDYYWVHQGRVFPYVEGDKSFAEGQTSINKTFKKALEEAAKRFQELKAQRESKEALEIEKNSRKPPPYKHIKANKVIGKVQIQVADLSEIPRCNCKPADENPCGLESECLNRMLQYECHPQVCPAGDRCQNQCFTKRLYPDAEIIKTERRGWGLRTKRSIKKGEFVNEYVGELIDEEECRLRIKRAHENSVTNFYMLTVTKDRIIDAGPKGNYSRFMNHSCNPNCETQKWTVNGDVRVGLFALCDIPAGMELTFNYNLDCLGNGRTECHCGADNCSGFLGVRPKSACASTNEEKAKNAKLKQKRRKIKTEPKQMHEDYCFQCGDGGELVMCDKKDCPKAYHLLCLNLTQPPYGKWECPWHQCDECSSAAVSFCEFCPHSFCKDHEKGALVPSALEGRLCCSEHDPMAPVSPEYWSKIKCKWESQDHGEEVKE

Homo sapiens = species: Homo sapiens; assay: Inhibition of Ezh1 (Ezh1/EED/SUZ12/AEBP2/RbAP48) (unknown origin) at <5 uM using histone H3 peptide (21 to 44) as substrate in presence of co-factor SAM by LC-MS analysis

How did the inhibition [1] turn out when `COc1nc(Nc2cc(S(C)(=O)=O)ccc2N[C@@H](c2cccc3c2OC(F)(F)O3)c2ncccc2Cl)nc(N2CCNCC2)n1` was run?
Its inhibition is “inactive”.

What about the inhibition [2] of the same compound?
Its inhibition is “inactive”.

And the “fold change (FC)” value (MV4-11)?
The value was under 0.5.

What about the inhibition [3] of the same compound?
Its inhibition is “inactive”.

And the inhibition (Homo sapiens)?
Its inhibition is “inactive”.
